Test results as given in article PMC6966663 (Cancers, 2019).

Legend:
[1] = design: method as in PMID 31478386; details: clinical; cited from earlier work
p-PRAS40 = system: p-PRAS40; design: method as in PMID 31118521; details: at 4 h post-dosing; cited from earlier work
[2] = human, in vivo
Text: Safety evaluations included adverse events (AEs), vital signs, laboratory tests, and 12-lead electrocardiograms at screening, at planned times during each cycle, during follow-up, and up to 30 days after the last dose. Adverse events were graded using the National Cancer Institute Common CTCAE version 4.03.
Descriptive statistics were used to summarize demographic data, other baseline characteristics, AEs, safety parameters, and tumor assessment data. […] All subjects who completed the study were included in the evaluation of PD/PK. […] The incidence of treatment-emergent adverse events and drug-related adverse events, respectively, was summarized by treatment in frequency tables using the CTCAE grade.

[3] = system: cells with PI3K/AKT/mTOR pathway alterations; details: cited from earlier work
[4] = system: HR+ advanced breast cancer; design: method as in PMID 31091374; details: in combination with fulvestrant, cited from earlier work

NC1(C(=O)N[C@@H](CCO)c2ccc(Cl)cc2)CCN(c2ncnc3[nH]ccc23)CC1 [AZD5363]
Rate of Grade 3 hyperglycemia [1]: up to 39.0%
Reduction in p-PRAS40 (p-PRAS40): about 60%

NC(=O)c1ccc2nc(-c3ccc(C4(N)CCC4)cc3)c(-c3ccccc3)n2n1 [BAY 1125976]
Patients with at least one treatment-emergent adverse event (TEAE) [2]: 77 (97.5%) patients
Patients with serious adverse events (SAEs) [2]: 33 patients
IC50 of inhibition of proliferation [3]: submicromolar

Cc1nc(NC(=O)N2CCC[C@H]2C(N)=O)sc1-c1ccnc(C(C)(C)C(F)(F)F)c1 [alpelisib]
PFS ([4]; PIK3CA-mutated HR+ advanced breast cancer after previous endocrine therapy, versus 5.7 for control): 11.0 months
Overall response rate ([4]; patients without PIK3CA mutation as printed, versus 12.8% placebo control): 26.6%
